Experimental data taken from the Deep4Chem optical property database.

experiment: solvent given as SMILES; settings: in C1CCCCC1

SMILES	emission maximum
CCCCc1cc2cccc[n+]2[b-]2c(-c3cccc4[b-]3[n+]3ccccc3cc4CCCC)cccc21	451 nm
CC(C)(C)c1ccc2c(c1)c1cc(C(C)(C)C)ccc1n2-c1cccc2c1Oc1c(-c3nc(-c4ccccc4)nc(-c4ccccc4)n3)cccc1C2(C)C	428 nm
ClC(Cl)=C1c2ccccc2C(C2(Cl)c3ccccc3C(=C(Cl)Cl)c3ccccc32)c2ccccc21 (stereo not drawn)	425.81 nm
CC(C)c1ccc(/C=C/c2nc3ccc(N(C)C)cc3s2)cc1	454 nm
COOCc1noc(-c2ccccc2)c1Br	345 nm

Results, then the molecule that gave them:

emission maximum	SMILES
389 nm	CN(C)c1ccc2nc(-c3ccccc3)sc2c1Cl
460 nm	N#Cc1c2nc3ccccn3c2nc2c1nc1ccccn12
328 nm	C[SiH](C)c1cccc2ccccc12
427 nm	CN(C)c1ccc2nc(-c3ccc(C(=O)Nc4ccccc4)cc3)sc2c1
482 nm	c1ccc(-c2nc(-c3c[nH]c4ccccc34)n3ccccc23)cc1

same assay, conditions: in C1CCOC1

emission maximum	SMILES
563 nm	COCCN1C(=O)/C(=C/c2cccc(N(C)C)c2)N=C1C
461 nm	C(=C(c1ccccc1)c1ccccc1)c1ccc(C=C(c2ccccc2)c2ccccc2)cc1
396 nm	COc1ccc(C(=Cc2ccc(C=O)cc2)c2ccc(OC)cc2)cc1
418 nm	NS(=O)(=O)c1ccc(N2N=C(c3ccc(O)cc3)CC2c2ccccc2)cc1 (stereo not drawn)
361.1 nm	CCCCCCCCCn1c(-c2cc(-c3nc4ccccc4n3CCCCCCCCC)cc(-c3nc4ccccc4n3CCCCCCCCC)c2)nc2ccccc21
483 nm	COc1cc(/C=C/c2nc3ccccc3o2)c(OC)cc1/C=C/c1nc(C)nc(C)n1

SMILES	emission maximum
CC(C)(C)c1ccc2c(c1)sc1[n+]2[B-](F)(F)n2c(c3cccc4c(Br)ccc2c43)=C1C#N	563 nm
CN(C)c1ccc(/C=C/c2cc(/C=C/c3ccc(N(C)C)cc3)nc(/C=C/c3ccc(N(c4ccccc4)c4ccccc4)cc3)n2)cc1	521 nm

same assay, conditions: in C1COCCO1

emission maximum	SMILES
470 nm	N#Cc1c2nc3ccccn3c2nc2c1nc1ccccn12
417 nm	NS(=O)(=O)c1ccc(N2N=C(c3ccc(O)cc3)CC2c2ccccc2)cc1 (stereo not drawn)
527 nm	CCn1c(=O)nc2n(C)c3cc(C)ccc3nc-2c1=O

same assay, conditions: in CC#N

SMILES	emission maximum
COCCN1C(=O)/C(=C/c2cccc(N(C)C)c2)N=C1C	632 nm
CC(C)(C)c1ccc2c(c1)sc1[n+]2[B-](F)(F)n2c(c3cccc4c(Br)ccc2c43)=C1C#N	558 nm
COc1ccc(-c2cc(-c3ccc(C)cc3)nc3c(C#N)c(N4CCCC4)nc(N)c23)cc1	521 nm
CCN(CC)c1ccc(/C=N/c2cc3ccccc3cc2/N=C/c2ccc(N(CC)CC)cc2O)c(O)c1	512 nm
O=C1CCCC2=C1CC1=C(CCCC1=O)N2NC(=O)c1ccc(O)cc1	434 nm
CCC1=C(C)c2cc3c(OC)cc(OC)cc3c(=O)n2C1=O	476 nm
C/C=C/c1cccc(OC)c1	327 nm
CCn1c(=O)nc2n(C)c3cc(C)ccc3nc-2c1=O	530 nm
CC(C)c1ccc(/C=C/c2nc3ccc(N(C)C)cc3s2)cc1	517 nm
CN(C)c1ccc(/C=C/c2cc(/C=C/c3ccc(N(C)C)cc3)nc(/C=C/c3ccc(N(c4ccccc4)c4ccccc4)cc3)n2)cc1	584 nm
COc1cc(/C=C/c2nc3ccccc3o2)c(OC)cc1/C=C/c1nc(C)nc(C)n1	495 nm

More lines, now with the values ahead:

emission maximum	SMILES
466 nm	CN(C)c1ccc2nc(-c3ccccc3)sc2c1Cl
495 nm	N#Cc1c2nc3ccccn3c2nc2c1nc1ccccn12
589 nm	CN(C)C1=Nc2cccc3cccc1c23
417 nm	NS(=O)(=O)c1ccc(N2N=C(c3ccc(O)cc3)CC2c2ccccc2)cc1 (stereo not drawn)
553 nm	CN(C)c1ccc2nc(-c3ccc(C(=O)Nc4ccccc4)cc3)sc2c1
506 nm	c1ccc(-c2nc(-c3c[nH]c4ccccc34)n3ccccc23)cc1

same assay, conditions: in CC(C)=O

SMILES	emission maximum
COc1ccc(-c2cc(-c3ccc(C)cc3)nc3c(C#N)c(N4CCCC4)nc(N)c23)cc1	517 nm
CC(C)(C)c1ccc2c(c1)c1cc(C(C)(C)C)ccc1n2-c1cccc2c1Oc1c(-c3nc(-c4ccccc4)nc(-c4ccccc4)n3)cccc1C2(C)C	503 nm
O=C1CCCC2=C1CC1=C(CCCC1=O)N2NC(=O)c1ccc(O)cc1	432 nm
CN(C)c1ccc(/C=C/c2cc(/C=C/c3ccc(N(C)C)cc3)nc(/C=C/c3ccc(N(c4ccccc4)c4ccccc4)cc3)n2)cc1	561 nm

same assay, conditions: in CC(C)O

emission maximum	SMILES
477.17 nm	CN(C)c1ccc2nc(-c3ccccc3)sc2c1Cl
423 nm	NS(=O)(=O)c1ccc(N2N=C(c3ccc(O)cc3)CC2c2ccccc2)cc1 (stereo not drawn)
534 nm	CN(C)c1ccc2nc(-c3ccc(C(=O)Nc4ccccc4)cc3)sc2c1

SMILES	emission maximum
COc1ccc(-c2cc(-c3ccc(C)cc3)nc3c(C#N)c(N4CCCC4)nc(N)c23)cc1	511 nm

same assay, conditions: in CCCCCC

emission maximum	SMILES
491 nm	COCCN1C(=O)/C(=C/c2cccc(N(C)C)c2)N=C1C
526 nm	CC(C)[Si](C#Cc1c2nsnc2c(C#C[Si](C(C)C)(C(C)C)C(C)C)c2nc3c(nc12)C1c2ccccc2C3c2ccccc21)(C(C)C)C(C)C
325 nm	C/C=C/c1cccc(OC)c1

SMILES	emission maximum
CC(C)(C)c1ccc2c(c1)sc1[n+]2[B-](F)(F)n2c(c3cccc4c(Br)ccc2c43)=C1C#N	558 nm

same assay, conditions: in CCCCCCC

SMILES	emission maximum
CN(C)c1ccc(/C=C/c2cc(/C=C/c3ccc(N(C)C)cc3)nc(/C=C/c3ccc(N(c4ccccc4)c4ccccc4)cc3)n2)cc1	451 nm

same assay, conditions: in CCCCCO

SMILES	emission maximum
O=C1CCCC2=C1CC1=C(CCCC1=O)N2NC(=O)c1ccc(O)cc1	447 nm
ClC(Cl)=C1c2ccccc2C(C2(Cl)c3ccccc3C(=C(Cl)Cl)c3ccccc32)c2ccccc21 (stereo not drawn)	442.64 nm

same assay, conditions: in CCCCO

emission maximum	SMILES
446.26 nm	ClC(Cl)=C1c2ccccc2C(C2(Cl)c3ccccc3C(=C(Cl)Cl)c3ccccc32)c2ccccc21 (stereo not drawn)

same assay, conditions: in CCCO

emission maximum	SMILES
443.26 nm	ClC(Cl)=C1c2ccccc2C(C2(Cl)c3ccccc3C(=C(Cl)Cl)c3ccccc32)c2ccccc21 (stereo not drawn)

same assay, conditions: in CCO

SMILES	emission maximum
ClC(Cl)=C1c2ccccc2C(C2(Cl)c3ccccc3C(=C(Cl)Cl)c3ccccc32)c2ccccc21 (stereo not drawn)	447.14 nm
CC[N+](CC)=c1ccc2c(C(F)(F)F)c3c(oc-2c1)-c1ccc(N(C)C)cc1CC3	425 nm

Now from value to molecule:

emission maximum	SMILES
428 nm	NS(=O)(=O)c1ccc(N2N=C(c3ccc(O)cc3)CC2c2ccccc2)cc1 (stereo not drawn)
567 nm	O=Cc1ccc(-c2cccc(-c3nc4ccccc4s3)c2O)o1

same assay, conditions: in CCOC(C)=O

emission maximum	SMILES
476 nm	CCn1c2ccccc2c2c(C#N)c3c(ccc4c3cnn4C)nc21
416 nm	NS(=O)(=O)c1ccc(N2N=C(c3ccc(O)cc3)CC2c2ccccc2)cc1 (stereo not drawn)
404 nm	CCn1c(-c2ccc(OC)cc2)c(-c2ccc3ccccc3c2)c(-c2ccc3ccccc3c2)c1-c1ccc(OC)cc1

same assay, conditions: in CN(C)C=O

SMILES	emission maximum
CCN(CC)c1ccc(/C=N/c2cc3ccccc3cc2/N=C/c2ccc(N(CC)CC)cc2O)c(O)c1	516 nm
CCCCCCCCCCCCN1C(=O)c2ccc3c4ccc5c6c(ccc(c7ccc(c2c37)C1=O)c64)C(=O)NC5=O	535 nm

Continued, values first:

emission maximum	SMILES
515 nm	N#Cc1c2nc3ccccn3c2nc2c1nc1ccccn12
422 nm	NS(=O)(=O)c1ccc(N2N=C(c3ccc(O)cc3)CC2c2ccccc2)cc1 (stereo not drawn)

same assay, conditions: in CO

SMILES	emission maximum
COc1ccc(-c2cc(-c3ccc(C)cc3)nc3c(C#N)c(N4CCCC4)nc(N)c23)cc1	519 nm
O=C1CCCC2=C1CC1=C(CCCC1=O)N2NC(=O)c1ccc(O)cc1	449 nm
CCC1=C(C)c2cc3c(OC)cc(OC)cc3c(=O)n2C1=O	510 nm
ClC(Cl)=C1c2ccccc2C(C2(Cl)c3ccccc3C(=C(Cl)Cl)c3ccccc32)c2ccccc21 (stereo not drawn)	449.43 nm
CCN1C(=CC2=C([O-])C(=CC3=[N+](CC)c4ccccc4C3(C)C)C2=O)C(C)(C)c2ccccc21	644 nm
CCn1c(=O)nc2n(C)c3cc(C)ccc3nc-2c1=O	532 nm

Second part, the molecule after the results:

emission maximum	SMILES
472 nm	CN(C)c1ccc2nc(-c3ccccc3)sc2c1Cl
432 nm	NS(=O)(=O)c1ccc(N2N=C(c3ccc(O)cc3)CC2c2ccccc2)cc1 (stereo not drawn)
565 nm	CN(C)c1ccc2nc(-c3ccc(C(=O)Nc4ccccc4)cc3)sc2c1
500 nm	c1ccc(-c2nc(-c3c[nH]c4ccccc34)n3ccccc23)cc1

same assay, conditions: in CS(C)=O

SMILES	emission maximum
CCC1=C(C)c2cc3c(OC)cc(OC)cc3c(=O)n2C1=O	485 nm
CN(C)c1ccc(/C=C/c2cc(/C=C/c3ccc(N(C)C)cc3)nc(/C=C/c3ccc(N(c4ccccc4)c4ccccc4)cc3)n2)cc1	596 nm

Second part, the molecule after the results:

emission maximum	SMILES
465.05 nm	CN(C)c1ccc2nc(-c3ccccc3)sc2c1Cl
424 nm	NS(=O)(=O)c1ccc(N2N=C(c3ccc(O)cc3)CC2c2ccccc2)cc1 (stereo not drawn)
564 nm	CN(C)c1ccc2nc(-c3ccc(C(=O)Nc4ccccc4)cc3)sc2c1

same assay, conditions: in Cc1ccccc1

SMILES	emission maximum
CC(C)(C)c1ccc2c(c1)sc1[n+]2[B-](F)(F)n2c(c3cccc4c(Br)ccc2c43)=C1C#N	563 nm
N#Cc1cc(-c2ccc(N3c4ccccc4Oc4ccccc43)cc2)c(-c2ccc(N3c4ccccc4Oc4ccccc43)cc2)cc1C#N	577 nm
CC(C)(C)c1ccc2c(c1)c1cc(C(C)(C)C)ccc1n2-c1cccc2c1Oc1c(-c3nc(-c4ccccc4)nc(-c4ccccc4)n3)cccc1C2(C)C	451 nm
CN(C)c1ccc(/C=C/c2cc(/C=C/c3ccc(N(C)C)cc3)nc(/C=C/c3ccc(N(c4ccccc4)c4ccccc4)cc3)n2)cc1	480 nm

same assay, conditions: in ClC(Cl)Cl

SMILES	emission maximum
COc1ccc(-c2cc(-c3ccc(C)cc3)nc3c(C#N)c(N4CCCC4)nc(N)c23)cc1	504 nm
CC(C)(C)c1ccc2c(c1)c1cc(C(C)(C)C)ccc1n2-c1cccc2c1Oc1c(-c3nc(-c4ccccc4)nc(-c4ccccc4)n3)cccc1C2(C)C	489 nm
O=C1CCCC2=C1CC1=C(CCCC1=O)N2NC(=O)c1ccc(O)cc1	444 nm
CCC1=C(C)c2cc3c(OC)cc(OC)cc3c(=O)n2C1=O	469 nm
CCN1C(=CC2=C([O-])C(=CC3=[N+](CC)c4ccccc4C3(C)C)C2=O)C(C)(C)c2ccccc21	645 nm
COc1cc(/C=C/c2nc3ccccc3o2)c(OC)cc1/C=C/c1nc(C)nc(C)n1	490 nm

Now from value to molecule:

emission maximum	SMILES
437 nm	CN(C)c1ccc2nc(-c3ccccc3)sc2c1Cl
475 nm	N#Cc1c2nc3ccccn3c2nc2c1nc1ccccn12
494 nm	CN(C)c1ccc2nc(-c3ccc(C(=O)Nc4ccccc4)cc3)sc2c1

same assay, conditions: in ClCCCl

emission maximum	SMILES
531 nm	CCn1c(=O)nc2n(C)c3cc(C)ccc3nc-2c1=O

same assay, conditions: in ClCCl

SMILES	emission maximum
CN(C)c1ccc(-c2ccc(/C=C/c3ccncn3)cc2)cc1	570 nm
CC(C)(C)c1ccc2c(c1)sc1[n+]2[B-](F)(F)n2c(c3cccc4c(Br)ccc2c43)=C1C#N	560 nm
COc1ccc(-c2cc(-c3ccc(C)cc3)nc3c(C#N)c(N4CCCC4)nc(N)c23)cc1	509 nm
CCN(CC)c1ccc(/C=N/c2cc3ccccc3cc2/N=C/c2ccc(N(CC)CC)cc2O)c(O)c1	539 nm
O=C1CCCC2=C1CC1=C(CCCC1=O)N2NC(=O)c1ccc(O)cc1	436 nm
CN(C)c1ccc(/C=C/c2cc(/C=C/c3ccc(N(C)C)cc3)nc(/C=C/c3ccc(N(c4ccccc4)c4ccccc4)cc3)n2)cc1	533 nm
COC(=O)/C=C/C1=CC2=C(c3c(C)cc(C)cc3C)c3cccn3[B-](F)(F)[N+]2=C1	570 nm
CC[N+](CC)=c1ccc2c(C(F)(F)F)c3c(oc-2c1)-c1ccc(N(C)C)cc1CC3	713 nm
CCOC(=O)c1c(-c2c(Cl)c3cc(C)ccc3oc2=O)nn(-c2cccc(C)c2)c1C(=O)OCC	418 nm
COc1cc(/C=C/c2nc3ccccc3o2)c(OC)cc1/C=C/c1nc(C)nc(C)n1	492 nm

Further lines, results first:

emission maximum	SMILES
509 nm	CCN(CC)c1ccc2c(c1)oc(=O)c1cc3c(-c4ccccc4)nn(-c4ccccc4)c3nc12
442 nm	O=c1c2ccccc2nc2ccccn12
565 nm	O=Cc1ccc(-c2cccc(-c3nc4ccccc4s3)c2O)o1
556 nm	O=[N+]([O-])c1ccc(-c2cn3ccc[n+]3[n-]2)cc1
506 nm	c1ccc(-c2nc(-c3c[nH]c4ccccc34)n3ccccc23)cc1

same assay, conditions: in O

emission maximum	SMILES
448 nm	NS(=O)(=O)c1ccc(N2N=C(c3ccc(O)cc3)CC2c2ccccc2)cc1 (stereo not drawn)
585 nm	O=Cc1ccc(-c2cccc(-c3nc4ccccc4s3)c2O)o1
716 nm	CC[N+](CC)=c1ccc2c(C(F)(F)F)c3c(oc-2c1)-c1ccc(N(C)C)cc1CC3
507 nm	c1ccc(-c2nc(-c3c[nH]c4ccccc34)n3ccccc23)cc1

same assay, conditions: in c1cc(-c2cccc(-n3c4ccccc4c4ccccc43)c2)cc(-n2c3ccccc3c3ccccc32)c1

SMILES	emission maximum
N#Cc1cc(-c2ccc(N3c4ccccc4Oc4ccccc43)cc2)c(-c2ccc(N3c4ccccc4Oc4ccccc43)cc2)cc1C#N	540 nm

same assay, conditions: in c1ccccc1

emission maximum	SMILES
425.86 nm	CN(C)c1ccc2nc(-c3ccccc3)sc2c1Cl
475 nm	CN(C)c1ccc2nc(-c3ccc(C(=O)Nc4ccccc4)cc3)sc2c1

SMILES	emission maximum
COc1ccc(-c2cc(-c3ccc(C)cc3)nc3c(C#N)c(N4CCCC4)nc(N)c23)cc1	513 nm
